Source: patent US10183908B2, “Compositions for the treatment of kidney and/or liver disease” (VECTUS BIOSYSTEMS LIMITED, priority 2015, dated 2019)

Key:
[1] = system: Rat (NRK-52E) renal proximal tubule cells; assay: Rescue of renal proximal tubule cells from cisplatin cytotoxicity (WST-8/CCK-8); type: cell-based; details: test compound 30 μM; cisplatin 5 μg/ml; 24 or 48 hours; FIG. 10
Experimental: Rat (NRK-52E) renal proximal tubule cells grown in DMEM+10% FBS+1% NEAA+2 mM glutamine were placed in 96 well plates at 10,000 cells/well and incubated at 37° C. with 5% CO2 overnight. Test compounds at a concentration of 30 μM were incubated with human or rat renal proximal tubule cells for 2 hours at 37° C. and 5% CO2. Cis-diamminedichloroplatinum[…] (cisplatin) was then added at […] and each cell population was then incubated for 24 or 48 hours at 37° C. with 5% CO2. Test compounds were maintained at their original concentrations. To assay the cytotoxic effects of cisplatin on the rat renal proximal tubule cells a highly water-soluble tetrazolium salt, WST-8, which is reduced by dehydrogenases in cells to produce formazan, a water-soluble, yellow-coloured indicator dye was used following the manufacturer's instructions (specifically the Cell Count Kit-8 (CCK-8) assay from Sigma). Plate absorbance of the WST-8 (CCK-8) reagent was then measured at 450 nm using a Thermo Scientific Multiskan EX plate reader.

[2] = system: A10 embryonic vascular smooth muscle cells; assay: xCELLigence cell impedance in A10 vascular smooth muscle cells; type: cell-based; details: test compounds at 62.5, 125 or 250 μM; FIG. 8; negative response = direct vasodilator
Source text: The xCELLigence SP system (Roche) was used to measure changes in cellular impedance (cell index) following the treatment of A10 embryonic vascular smooth muscle cells (ATCC, CRL-1476) with test compound. In this in vitro cell based experimental system a negative impedance profile correlates with blood pressure reduction in rats—a decrease in impedance is associated with vasodilatation and an increase in impedance is associated with vasoconstriction (Stallaert W, Dorn J F, van der Westhuizen E, Audet M & Bouvier M. Impedance responses reveal β-adrenergic signaling […] and allow classification of ligands with distinct signalling profiles PLoS ONE 2012; 7(1):e29420, doi:10.1371/journal.pone.0029420).
(§1) Briefly, 50 μl of cell culture medium (DMEM low glucose supplemented with 10% fetal bovine serum at 37° C.) was added to each well of an E-Plate 96 (Roche), and the background impedance in each well was measured. 50 μl of A-10 cell suspension (10,000 cells/well) was then added to the appropriate wells of the E-Plate 96. Cell index was monitored for each well of the E-Plate 96 in RTCA SP Station within the cell culture incubator. After overnight incubation for 16-20 hours at 5% CO2 and 95% humidity, 100 μl of test compound solution (test compounds were prepared in DMSO and diluted with cell culture medium to a final DMSO concentration of 0.25%) was added to the appropriate wells of the E-Plate 96 and cell index values were measured immediately following compound treatment every 20 seconds for 3 hours. Cell index value is baseline-corrected by subtracting the cell index of vehicle-treated cells and normalized by dividing by the cell index at the time point immediately before compound addition. Baseline normalized cell index as a function of time is plotted using Roche RTCA software.
Compounds may achieve reductions in blood pressure by interaction with vascular smooth muscle cells causing these cells to relax resulting in vasodilatation and a reduction in blood pressure. These are termed direct vasodilators.

[3] = system: bovine aortic endothelial cells; assay: xCELLigence cell impedance in bovine aortic endothelial cells; type: cell-based; details: test compounds at 62.5, 125 or 250 μM; FIG. 9; negative response = indirect vasodilator
Experimental: as §1
The xCELLigence SP system was also used to measure changes in cellular impedance following the treatment of bovine aortic endothelial cells (European Collection of Cell Cultures) with test compound. The method employed is the same for the A10 embryonic vascular smooth muscle cells described above but with the cell culture medium supplemented with 15% fetal bovine serum instead of 10%.
Compounds may interact with vascular endothelial cells causing the release of substances such as nitric oxide and endothelium-derived hyperpolarising factor, which in turn act on the vascular smooth muscle cells causing vasodilatation and lowering blood pressure. Such compounds are termed indirect vasodilators.

SHR [4] = assay: Kidney fibrosis in SHR (Masson's trichrome); type: in vivo, rat; details: SHR on 2.2% salt diet; 500 pmol/kg/min; 4 weeks; FIG. 12, *p<0.05
Source text: (§2) Fourteen week old SHR (on a 2.2% salt diet; Glen Forrest Stockfeeders) were randomly assigned to zero time control (14 week old rats), test compound treatment drinking solution (500 pmol/kg/min in deionised distilled water) or control drinking solution (5% ethanol in deionised distilled water). The rats assigned to zero time control group (14 week old rats) were anaesthetised and had their kidneys and liver harvested while rats assigned to control and test compound treatment were weighed twice weekly and had their drinking solution intake monitored to allow adjustment of the test compound concentration in the drinking solution to maintain a constant dose over the 4-week study period. Blood pressure was measured twice weekly by tail cuff plethysmography (PowerLab, ADInstruments, Castle Hill, NSW, Australia). After 4 weeks rats were anaesthetised (18 week old rats), and their kidneys and liver harvested. To quantitate tissue fibrosis and/or fat content, tissue slices ≤3 mm thick were fixed in 10% buffered formalin for 24 hours, processed and embedded in paraffin. Three micron transverse sections were stained using Masson's trichrome stain. A minimum of 20 random fields at magnification ×20 from transverse sections (5 at each of 2 levels) were digitized and the degree of fibrosis and fat content determined as a percent of field area of each digitized image using Image-Pro Plus V.7 (Media Cybernetics, Bethesda, Md., USA) then averaged to determine the level of fibrosis and/or fat content for each rat.

SHR [5] = assay: Hepatic fibrosis in SHR (Masson's trichrome); type: in vivo, rat; details: for Fibrosis in the liver compared to 18 week controls: SHR, 500 pmol/kg/min, 4 weeks, FIG. 13, *p<0.05, **p<0.025, ***p<0.01
Source text: as §2

Compound: Cc1n[nH]cc1-c1ccc(-c2cccc(O)c2)c(CCC(N)=O)c1 [Compound P45, 3-[3′-Hydroxy-4-(3-methyl-1H-pyrazol-4-yl)biphenyl-2-yl]propanamide]
- Cisplatin induced cell death in renal proximal tubular cells [1]: decreased

Compound: NC(=O)CCc1cc(-n2cccc2)ccc1-c1cccc(O)c1 [Compound P9, 3-(3′-Hydroxy-4-(1H-pyrrol-1-yl)-[1,1′-biphenyl]-2-yl)propanamide]
- impedance response for A10 vascular smooth muscle cells [2]: Negative impedance responses
- impedance response for bovine aortic endothelial cells [3]: Negative impedance responses
- Cisplatin induced cell death in renal proximal tubular cells [1]: decreased
- Fibrosis in the kidney compared to 18 week controls (SHR [4]): decreased
- Tissue architecture of portal tracts in Masson's tri-chrome stained liver sections (SHR [5]; SHR treated rats vs control, FIG. 14): normal tissue architecture has been restored
- Fibrosis in the liver compared to 18 week controls (SHR [5]): decreased

Compound: NC(=O)CCc1cc(-c2ccc(F)cc2)ccc1-c1cccc(O)c1 [Compound P3, 3-(4″-Fluoro-3-hydroxy-1,1′:4′,1″-terphenyl-2′-yl)propanamide]
- impedance response for A10 vascular smooth muscle cells [2]: Negative impedance responses
- impedance response for bovine aortic endothelial cells [3]: Negative impedance responses
- Cisplatin induced cell death in renal proximal tubular cells [1]: decreased

Compound: Cc1n[nH]c(C)c1-c1ccc(-c2cccc(O)c2)c(CCC(N)=O)c1 [Compound P42, 3-[4-(3,5-Dimethyl-1H-pyrazol-4-yl)-3′-hydroxybiphenyl-2-yl]propanamide]
- impedance response for bovine aortic endothelial cells [3]: Negative impedance responses
- Cisplatin induced cell death in renal proximal tubular cells [1]: decreased

Compound: NC(=O)CCc1cc(-c2ccccn2)ccc1-c1cccc(O)c1 [Compound P4, 3-[3′-Hydroxy-4-(pyridin-2-yl)biphenyl-2-yl]propanamide]
- impedance response for bovine aortic endothelial cells [3]: Negative impedance responses
- Cisplatin induced cell death in renal proximal tubular cells [1]: decreased

Compound: COc1cccc(-c2ccc(-c3cccc(O)c3)c(CCC(N)=O)c2)c1 [Compound P50, 3-(3-Hydroxy-3″-methoxy-1,1′:4′,1″-terphenyl-2′-yl)propanamide]
- impedance response for bovine aortic endothelial cells [3]: Negative impedance responses
- Cisplatin induced cell death in renal proximal tubular cells [1]: decreased

Compound: Cc1cccc(-c2ccc(-c3cccc(O)c3)c(CCC(N)=O)c2)c1 [Compound P46, 3-(3-Hydroxy-3″-methyl-1,1′:4′,1″-terphenyl-2′-yl)propanamide]
- impedance response for A10 vascular smooth muscle cells [2]: Negative impedance responses
- impedance response for bovine aortic endothelial cells [3]: Negative impedance responses
- Cisplatin induced cell death in renal proximal tubular cells [1]: decreased

Compound: Cc1cscc1-c1ccc(-c2cccc(O)c2)c(CCC(N)=O)c1 [Compound P44, 3-[3′-Hydroxy-4-(4-methylthiophen-3-yl)biphenyl-2-yl]propanamide]
- impedance response for bovine aortic endothelial cells [3]: Negative impedance responses
- Cisplatin induced cell death in renal proximal tubular cells [1]: decreased

Compound: Cc1ccsc1-c1ccc(-c2cccc(O)c2)c(CCC(N)=O)c1 [Compound P43, 3-[3′-Hydroxy-4-(3-methylthiophen-2-yl)biphenyl-2-yl]propanamide]
- impedance response for bovine aortic endothelial cells [3]: Negative impedance responses
- Cisplatin induced cell death in renal proximal tubular cells [1]: decreased

Compound: NC(=O)CCc1cc(-c2ccoc2)ccc1-c1cccc(O)c1 [Compound P11, 3-(4-(Furan-3-yl)-3′-hydroxy-[1,1′-biphenyl]-2-yl)propanamide]
- impedance response for A10 vascular smooth muscle cells [2]: Negative impedance responses
- impedance response for bovine aortic endothelial cells [3]: Negative impedance responses
- Cisplatin induced cell death in renal proximal tubular cells [1]: decreased
- Fibrosis in the kidney compared to 18 week controls (SHR [4]): decreased
- Fibrosis in the liver compared to 18 week controls (SHR [5]): decreased

Compound: Cc1noc(C)c1-c1ccc(-c2cccc(O)c2)c(CCC(N)=O)c1 [Compound P41, 3-(4-(3,5-Dimethylisoxazol-4-yl)-3′-hydroxy-[1,1′-biphenyl]-2-yl)propanamide]
- impedance response for bovine aortic endothelial cells [3]: Negative impedance responses
- Cisplatin induced cell death in renal proximal tubular cells [1]: decreased

Compound: NC(=O)CCc1cc(-c2cccc(F)c2)ccc1-c1cccc(O)c1 [Compound P1, 3-(3″-Fluoro-3-hydroxy-1,1′:4′,1′-terphenyl-2′-yl)propanamide]
- impedance response for bovine aortic endothelial cells [3]: Negative impedance responses
- Cisplatin induced cell death in renal proximal tubular cells [1]: decreased

Compound: NC(=O)CCc1cc(-c2cc(F)cc(F)c2)ccc1-c1cccc(O)c1 [Compound P33, 3-(3″,5″-Difluoro-3-hydroxy-1,1′:4′,1″-terphenyl-2′-yl)propanamide]
- impedance response for A10 vascular smooth muscle cells [2]: Negative impedance responses
- impedance response for bovine aortic endothelial cells [3]: Negative impedance responses
- Cisplatin induced cell death in renal proximal tubular cells [1]: decreased

Compound: NC(=O)CCc1cc(-c2cccc(O)c2)ccc1-c1cccc(O)c1 [Compound P48, 3-(3,3″-Dihydroxy-1,1′:4′,1″-terphenyl-2′-yl)propanamide]
- impedance response for bovine aortic endothelial cells [3]: Negative impedance responses

Compound: NC(=O)CCc1cc(-c2ccncc2)ccc1-c1cccc(O)c1 [Compound P6, 3-[3′-Hydroxy-4-(pyridin-4-yl)biphenyl-2-yl]propanamide]
- impedance response for bovine aortic endothelial cells [3]: Negative impedance responses
- Cisplatin induced cell death in renal proximal tubular cells [1]: decreased

Compound: Cn1nccc1-c1ccc(-c2cccc(O)c2)c(CCC(N)=O)c1 [Compound P38, 3-[3′-Hydroxy-4-(1-methyl-1H-pyrazol-5-yl)biphenyl-2-yl]propanamide]
- impedance response for bovine aortic endothelial cells [3]: Negative impedance responses
- Cisplatin induced cell death in renal proximal tubular cells [1]: decreased

Compound: NC(=O)CCc1cc(-c2cccc(C(=O)O)c2)ccc1-c1cccc(O)c1 [Compound P47, 3′-(3-Amino-3-oxopropyl)-3″-hydroxy-1,1′:4′,1″-terphenyl-3-carboxylic Acid]
- impedance response for bovine aortic endothelial cells [3]: Negative impedance responses

Compound: NC(=O)CCc1cc(-c2ccc(N)cc2)ccc1-c1cccc(O)c1 [Compound P49, 3-(4″-Amino-3-hydroxy-1,1′:4′,1″-terphenyl-2′-yl)propanamide]
- impedance response for bovine aortic endothelial cells [3]: Negative impedance responses
- Cisplatin induced cell death in renal proximal tubular cells [1]: decreased
